From patent EP0569598A1, “BENZOXAZINONE DERIVATIVE” (JAPAN TOBACCO INC., priority 1991, dated 1993)

Tests used:
[1] = biological target: T1, human leukocyte elastase (HLE) (Homo sapiens, UniProt P08246); experiment: HLE inhibitory activity (synthetic substrate, pNA release, absorbance 405 nm); assay type: biochemical; conditions: pH 8.6; HLE 5.63 nM, substrate 0.2625 mM; 37°C; read-out: IC₅₀ value HLE
T1 construct: the mixed solution was subjected to density gradient centrifugation, thereby obtaining neutrophiles; from tissue; host or cells: neutrophils from human vein blood (buffy coat)
T1 sequence (P08246 30-247 limits assumed): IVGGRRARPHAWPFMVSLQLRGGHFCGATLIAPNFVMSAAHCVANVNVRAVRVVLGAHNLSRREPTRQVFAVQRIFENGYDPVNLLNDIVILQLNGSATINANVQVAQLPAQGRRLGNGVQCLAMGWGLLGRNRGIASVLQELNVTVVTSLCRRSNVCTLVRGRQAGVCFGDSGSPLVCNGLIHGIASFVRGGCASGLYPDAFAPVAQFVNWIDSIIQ
Description: (§1) Activities of the Benzoxazine derivatives of the present invention against human leukocyte elastase (HLE), human sputum elastase (HSE), human cathepsin G (HCG), bovine pancreatic α-chmotrypsin (CYT) and bovine pancreatic trypsin (TRY) were measured by the following method.
A buffy coat was obtained by subjecting human vein blood to centrifugation. To the buffy coat was added distilled water to make a hypotonic solution, thereby bursting erythrocytes. To the residual blood cell component was added a 33.4% of Conrey 400 solution/9% Ficoll solution (the ratio of the former solution to the latter solution is 10:24), and the mixed solution was subjected to density gradient centrifugation, thereby obtaining neutrophiles. The neutrophile fraction was washed with Hanks' buffer for three times and then cells were recovered and cryopreserved at -80°C until use. The cryopreserved-cells were thawed with warm water at 37°C and suspended in a 9-fold volume of lysis buffer containing 0.1M Tris-HCl (pH7.5), 1M MgCl₂ and 0.1% Brij 35. The suspended cells are destroyed by means of polotoron with ice-cooling. The cell suspension was subjected to centrifugation at 100,000 x g for 1 hour. After removing precipitates, 2-fold volume of a Tris-HCl buffer containing 5 mM Tris-HCl(pH 7.5), 1M NaCl and 1.1% Brij 35 was added to the supernatant, thereby obtaining a crude solution of an enzyme extract. The crude solution was subjected to aprotinine affinity column and extracted with an elution buffer containing […] of glycine-HCl (pH 3.3), 1M NaCl and 0.1% Brij 35, thereby obtaining an active fraction. The obtained active fraction was further subjected to MONO S-ion-exchange chromatography and eluted with 2M NaCl linear gradient. The obtained fraction was dialyzed against 25 mM Tris-HCl (pH8.6) and lyophilized, thereby obtained an enzyme sample.
(§2) A test compound was dissolved in DMSO (for fluorometry) and prepared various concentration of the solution. To each concentration was added 2-fold volume of 0.2M Tris-HCl (pH8.6), thereby obtaining a test solution. Synthetic substrate (Funakoshi, L-1335) was dissolved in DMSO and 2-volume of 0.2M Tris-HCl (pH8.6) was added thereto, thereby obtaining a substrate solution. The reaction was performed using a microplate having 96 wells (Nunk). Six-time reactions were repeated for each concentration. One handred and forty µl of an enzyme solution containing 0.2M Tris-HCl (pH8.6), 30 µl of a test solution and 30 µl of a substrate solution per well of the microplate were respectively pre-incubated at 37°C for 10 minutes. After completion of the incubation, the enzyme solution was mixed with the test sample and incubated for 10 minutes and then the substrate solution was added to perform an enzyme reaction. The absorbance of released P-nitroanilide (PNA) was measured at the wave length of 405 nm by means of a microplate reader (MTP-100; CORONA), thereby determining the substrate decomposition. The rate of the substrate decomposition was shown as an average value of 6 repeated reactions. The inhibitory concentration of a test compound relative to the amount of the substrate decomposition in the reaction mixture without a test compound was regarded as an IC₅₀ value. The final concentration of HLE and a synthesized substrate in the reaction mixture were 5.63 nM and 0.2625 mM, respectively.

[2] = biological target: T2, bovine pancreatic trypsin (TRY) (Bos taurus, UniProt P00760); experiment: TRY inhibitory activity (synthetic substrate, pNA release); assay type: biochemical; conditions: pH 7.5; TRY 25 nM, substrate Z-Arg-pNA 1.0 mM; read-out: IC₅₀ value TRY
T2 construct: bovine pancreatic trypsin (TRY); purchased Sigma Inc
T2 sequence (P00760 24-246): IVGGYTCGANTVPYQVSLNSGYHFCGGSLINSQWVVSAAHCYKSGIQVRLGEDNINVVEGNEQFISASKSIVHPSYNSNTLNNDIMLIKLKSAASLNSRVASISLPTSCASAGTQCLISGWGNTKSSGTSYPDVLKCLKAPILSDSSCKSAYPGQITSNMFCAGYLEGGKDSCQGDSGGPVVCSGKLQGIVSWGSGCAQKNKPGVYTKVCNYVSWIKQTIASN
Description: as §1
as §2, with “The rate of the substrate decomposition was shown as an average value of 6 repeated reactions. The inhibitory concentration of a test compound relative to the amount of the substrate decomposition in the reaction mixture without a test compound was regarded as an IC₅₀ value. The final concentration of HLE and a synthesized substrate in the reaction mixture were 5.63 nM and 0.2625 mM, respectively.” left out

[3] = biological target: T3, human sputum elastase (HSE) (Homo sapiens, UniProt P08246); experiment: HSE inhibitory activity (synthetic substrate, pNA release); assay type: biochemical; conditions: pH 7.0; HSE 10 nM, substrate 0.25 mM; read-out: IC₅₀ value HSE
T3 construct: human sputum elastase (HSE); purchased Sigma Inc
T3 sequence (P08246 30-267): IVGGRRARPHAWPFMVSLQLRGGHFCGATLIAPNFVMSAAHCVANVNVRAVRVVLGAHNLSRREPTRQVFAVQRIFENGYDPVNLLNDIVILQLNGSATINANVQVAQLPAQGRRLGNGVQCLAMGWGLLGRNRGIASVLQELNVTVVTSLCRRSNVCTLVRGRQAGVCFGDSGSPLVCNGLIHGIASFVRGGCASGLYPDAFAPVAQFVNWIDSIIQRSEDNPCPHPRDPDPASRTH
Description: as §1
as §2, with “The rate of the substrate decomposition was shown as an average value of 6 repeated reactions. The inhibitory concentration of a test compound relative to the amount of the substrate decomposition in the reaction mixture without a test compound was regarded as an IC₅₀ value. The final concentration of HLE and a synthesized substrate in the reaction mixture were 5.63 nM and 0.2625 mM, respectively.” left out

human cathepsin G (HCG) = biological target: T4, human cathepsin G (HCG) (Homo sapiens, UniProt P08311); experiment: HCG inhibitory activity (synthetic substrate, pNA release); assay type: biochemical; conditions: pH 7.5; HCG 50 nM, substrate 0.5 mM; read-out: IC₅₀ value HCG
T4 construct: purchased Cosmo Bio Inc
T4 sequence (P08311 21-244): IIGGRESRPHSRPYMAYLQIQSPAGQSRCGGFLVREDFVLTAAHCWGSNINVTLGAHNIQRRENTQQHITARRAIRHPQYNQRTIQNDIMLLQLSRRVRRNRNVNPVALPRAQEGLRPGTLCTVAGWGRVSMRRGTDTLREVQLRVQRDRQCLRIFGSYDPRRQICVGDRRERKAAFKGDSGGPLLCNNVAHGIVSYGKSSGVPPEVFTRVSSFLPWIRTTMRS
Description: as §1, §2
a) Enzyme obtaining route HCG was obtained from Cosmo Bio Inc.
The same method as in the measurement of HLE inhibitory activity was used except that a buffer solution (pH 7.5) was used. The final concentration of HCG and synthetic substrate (Funakoshi, L-1010) in a reaction mixture were 50 nM and 0.5 mM, respectively.

[4] = biological target: T5, bovine pancreatic α-chmotrypsin (CYT) (Bos taurus, UniProt P00766); experiment: CYT inhibitory activity (synthetic substrate, pNA release); assay type: biochemical; conditions: pH 8.0; CYT 3.4 nM, substrate 0.273 mM; read-out: IC₅₀ value CYT
T5 construct: bovine pancreatic α-chmotrypsin (CYT); purchased Sigma Co., Ltd
Description: as §1, §2
a) Enzyme obtaining route CYT was obtained from Sigma Co., Ltd.
Substantially the same method as used in the measurement of the HLE inhibitory activity was used except that a buffer solution (pH 8.0) was used. The final concentration of CYT and synthetic substrate (Funakoshi, L-1010) in a reaction mixture were 3.4 nM and 0.273 mM, respectively.

[5] = test system: neutrophiles from the human peripheral blood; experiment: Human neutrophile chemotaxis suppressing activity (fMLP, chemotaxis chamber); assay type: cell-based; conditions: 10-⁷M fMLP, one hour at 37°C; for Chemotaxis: experiment without compound regarded as 100
Description: The neutrophile fraction (60% percoal fraction having neutrophile purity of 90% or more) was taken from the human peripheral blood by means of percoal density gradient centrifugation at 2300 rpm for 20 minutes.
An intercell having a pore diameter of 5 µm, containing 8 x 10⁵ of neutrophiles and the compound of the present invention adjusted in various concentrations was placed in each well of a chemotaxis chamber (KURABO), in which has been added 1300 µl of a medium containing 10-⁷M of formylmethionyl-leucyl-phenylalanine (fMLP), which is a neutrophile chemotaxis factor. After incubating for one hour at 37°C in an incubator containing 5% carbon dioxide, the number of cells migrating from the upper side of the intercell membrane into the lower side of the membrane in the chamber was counted by the following method. That is, the lower side surface of the intercell membrane was washed with PBS for 4 times and fixed with methanol and dyed with hematoxylin-eosin solution. The membrane was removed from the intercell and placed on a slide, dried in air, followed by sealing with Canada balsam. The cell number was microscopically counted in 5 visual fields. Taking average number of the five fields, the average was employed as the number of migrating cells. The value subtracting the migrating cell number in a control experiment containing no fMLP from the cell number in an experiment containing no the compound of the present invention was regarded as 100, the chemotaxis suppressing activity was determined as the following formula: Neutrophilic chemotaxis suppressing activity (%) [formula] = 100 - A/B x 100 [formula] = 100 - (C - D)/(E-D) x 100 [formula] Where: • A: chemotaxis measured in the experiment containing the compound of the present invention; • B: chemotaxis measured in the experiment not containing the compound of the present invention • C: the number of migrating cells measured in the experiment containing both the compound of the present invention and fMLP. • D: the number of migrating cells in the experiment containing neither the compound of the present invention nor fMLP. • E: the number of migrating cells in the experiment containing only fMLP.

SMILES | IC50 [1] [nM] | IC50 (human cathepsin G (HCG)) [nM] | IC50 [4] [nM] | other results
Cc1cccc2nc([C@@H](NC(=O)CN(c3ccccc3)c3ccccc3)C(C)C)oc(=O)c12 [Compound 7, 2-{1(S)-[(N,N-diphenyl-glycyl)amino]-2-methylpropyl}-5-methyl-4H-3,1-benzoxazin-4-one] | 790 |  |  | 
Cc1cccc2nc([C@@H](NC(=O)CON=C(c3ccccc3)c3ccccn3)C(C)C)oc(=O)c12 [Compound 9, 5-Methyl-2-[2-methyl-1(S)-[[[[[phenyl(2-pyridyl)methylene]amino]oxy]acetyl]amino]propyl]-4H-3,1-benzoxazin-4-one] | 550 |  |  | 
Cc1cccc2nc([C@@H](NC(=O)OCC34CC5CC(CC(C5)C3)C4)C(C)C)oc(=O)c12 [Compound 6, 2-[1(S)-[[(1-adamantyl)methoxy-carbonyl]amino]-2-methylpropyl]-5-methyl-4H-3,1-benzoxazin-4-one] | 210 | > 25000 | 1550 | IC50 [2]: > 12600 nM; IC50 [3]: 260 nM
Cc1cccc2nc([C@@H](NC(=O)CCC(c3ccccc3)c3ccccc3)C(C)C)oc(=O)c12 [Compound 8, 2-{1(S)-[(4,4-diphenylbutyryl)amino]-2-methylpropyl}-5-methyl-4H-3,1-benzoxazin-4-one] | 400 |  |  | 
Cc1cccc2nc([C@@H](NC(=O)COC(c3ccccc3)c3ccccc3)C(C)C)oc(=O)c12 [Compound 2, 2-[1(S)-[[(diphenylmethoxy)acetyl]amino]-2-methylpropyl]-5-methyl-4H-3,1-benzoxazin-4-one] | 220 | > 27400 | 830 | Chemotaxis ([5]; Concentration 0.125 µM): 70.6; Chemotaxis ([5]; Concentration 1.000 µM): 57.4; activity at 0.125 µM ([5]; Homo sapiens, 1 h, Concentration 0.125 µM): 29.4%; activity at 1 µM ([5]; Homo sapiens, 1 h, Concentration 1.000 µM): 42.6%
Cc1cccc2nc([C@@H](NC(=O)COC(c3ccccn3)c3ccccn3)C(C)C)oc(=O)c12 [Compound 4] | 550 |  |  | 
